A word on the IC50: it is the point on the concentration scale where inhibition reaches its midpoint.

Each structure is given as a SMILES string. Read-outs that look alike come from different tables or passages of the source. Where only a bound is given, the exact number is not on record here.

The subject of one experiment is ACHN-luc. Kind of experiment: 72 h MTT cell viability ACHN-luc. In kind it is cell-based. Particulars: Homo sapiens. The text has this: (§1) MIT cytotoxicity assay. The compounds of the invention were subjected to a standard cellular proliferation assay using human cell lines. HeLa cells (Human cervix adenocarcinoma cell line, ATCC NO, CCL-2); A549 cells (Human lung carcinoma cells line, ATCC NO, CCL-185); U2OS cells (Human osteosarcoma cell line, ATCC NO, HTB-96); Eca-109 cells (Human esophageal carcinoma cell line); HepG2 (Human hepatocellular liver carcinoma cell line, ATCC NO, HB-8065); K562 cells (Human chronic myelogenous leukemia cell line, ATCC NO, CCL-243); SK-MEL-28 (Human malignant melanoma cell line, ATCC NO, HTB-72); Molt-4 (Human acute lymphoblastic leukemia cell line, ATCC NO, CRL-1582); H460 (Human large cell lung cancer cell line, ATCC NO, HTB-177); MDA-MB-231 (Human breast adenocarcinoma cell line, ATCC NO, HTB-26); MCF7 (Human breast adenocarcinoma cell line, ATCC NO, HTB-22); ACHN (Human renal cell adenocarcinoma cell line, ATCC NO, CRL-1611); PC-3M (Human prostate adenocarcinoma cell line, ATCC NO CRL-1435); HL60 (Human acute promyelocytic leukemia cell line, ATCC NO, CCL-240); THP-1 (Human acute monocytic leukemia, ATCC NO, TIB-202); Jurkat (Human acute T cell leukemia cell line, ATCC NO, CRL-2063); HCT-116 (Human colorectal carcinoma cell line, ATCC NO, CCL-247); HT-29 (Human colorectal adenocarcinoma cell line, ATCC NO, HTB-38™); WI-38 (Human normal lung cell line, ATCC NO, CCL-75); MRC-5 (Human normal lung cell line, ATCC NO, CCL-171).
(§2) HepG2, MDA-MB-231, WI-38 and MRC-5 cells were obtained from Shanghai Institute of Cell Biology, Chinese Academy of Sciences (Shanghai 200031, China). A549, HeLa, K562, MCF7, ACHN, H460, U2OS, Eca-109, MCF7, HL60, THP-1, Jurkat, HCT-116, HT-29, PC-3M, SK-MEL-28, Molt-4, H460 and […] cells were purchased from ATCC (American Type Culture Collection, USA).
(§3) Standard 72 h MTT (thiazolye blue; 3-[4,5-dimethylthiazol-2-yl]-2,5-diphenyltetrazolium bromide) assays were performed. Briefly, the cell lines used in this study were recovered and cultured according to the conditions recommended. 4000 cells per well were seeded into 96-well plates according to doubling time and incubated overnight at 37° C. Compounds were prepared in DMSO and a ½ dilution series in 100 μl cell culture media, added to cells (in duplicates) with the final DMSO concentration of 0.025%, and incubated for 72 hrs at 37° C. MTT solution (5 mg/ml) was added at 10 μl per well and incubated in the dark at 37° C. for 4 hr. Culture medium and MTT solution was removed. MTT dye was solubilised with 100 μl per well of DMSO with agitation. Absorbance was read at 562 nm and data analyzed using Sigmoid curve-fitting software Origin 6.0 (MicroCal, LLC, USA) to determine IC50 value.

The test system of the next experiment is HeLa cells. Briefly: 72 h MTT cytotoxicity assay HeLa. The class given is cell-based. Particulars: Homo sapiens.
Description: as §1, §2, §3
In general terms: Formazan colour is commonly taken as a measure of viable cells.

The test system of another experiment is Molt-4-luc. Briefly: 72 h MTT cytotoxicity assay Molt-4-luc. The class given is cell-based. Particulars: Homo sapiens.
Description: as §1, §2, §3

In another experiment the test system is MRC-5. Kind of experiment: 72 h MTT cell viability MRC-5 (normal lung). The class given is cell-based. The note with it: Homo sapiens, MRC5.
Description: as §1, §2, §3

Another experiment addresses CDK7 (Homo sapiens, UniProt P50613). Kind of experiment: Kinase assay CDK7 (Table III). The note with it: read-out: Target biochemical activity IC50 CDK7. Here is the method:
(§4) Kinase assays. The compounds were tested for their ability to inhibit kinases.

The next experiment deals with lung carcinoma (H460). Briefly: Inhibition of tumor growth, NCI-H460 in SCID-bg mice. The class given is in vivo. Particulars: oral once a day. How it is done:
Tumor type: lung carcinoma (H460)
Treatment: Single PO dose for 21 days (starting at day 7 following tumor inoculation)
Endpoint: tumor volume and mean luciferase activity by Xenogen (Caliper) machine:
SCID-bg mice were implanted with NCI-H460 cells at 5×10^6 cells/mouse on Day 0. Compound 18 treatment began on Day 7. […] In model group, the vehicle was used instead of compound 18. Tumor volume and mean luciferase activity by Xenogen technology were measured once per there days.

Another experiment deals with SRC (Homo sapiens, UniProt P12931). Briefly: Kinase assay SRC (Table III). The note with it: read-out: Target biochemical activity IC50 SRC. Here is the method: as §4
Another experiment concerns the target CDK9 (Homo sapiens, UniProt P50750). Briefly: CDK9 inhibitory activity, kinase assays (Table III). Particulars: read-out: Target biochemical activity IC50 CDK9. How it is done:
as §4

The next experiment deals with T1, TSSK1 (Homo sapiens, UniProt Q9BXA7).
T1 sequence (Q9BXA7 1-367): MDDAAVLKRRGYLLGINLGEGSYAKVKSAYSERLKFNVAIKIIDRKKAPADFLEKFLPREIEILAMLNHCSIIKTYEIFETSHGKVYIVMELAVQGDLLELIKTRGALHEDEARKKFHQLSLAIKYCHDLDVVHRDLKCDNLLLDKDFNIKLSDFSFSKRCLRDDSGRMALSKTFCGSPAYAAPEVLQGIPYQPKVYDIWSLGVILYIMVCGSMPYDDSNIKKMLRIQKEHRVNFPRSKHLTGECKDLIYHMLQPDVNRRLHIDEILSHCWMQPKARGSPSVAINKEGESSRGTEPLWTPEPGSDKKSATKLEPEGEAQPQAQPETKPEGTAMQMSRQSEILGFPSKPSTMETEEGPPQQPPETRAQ
Kind of experiment: Kinase assay TSSK1 (Table III). The note with it: read-out: Target biochemical activity IC50 TSSK1. How it is done:
as §4

The mark [1] stands for this setting: MRC-5, normal lung cell line, read-out: Cell Viability IC50 MRC-5.
Where [2] appears, read: MRC-5, Table III, read-out: Cellular effect in mammalian cells IC50 MRC-5.

CDK7, sequence (P50613 whole entry, species assumed): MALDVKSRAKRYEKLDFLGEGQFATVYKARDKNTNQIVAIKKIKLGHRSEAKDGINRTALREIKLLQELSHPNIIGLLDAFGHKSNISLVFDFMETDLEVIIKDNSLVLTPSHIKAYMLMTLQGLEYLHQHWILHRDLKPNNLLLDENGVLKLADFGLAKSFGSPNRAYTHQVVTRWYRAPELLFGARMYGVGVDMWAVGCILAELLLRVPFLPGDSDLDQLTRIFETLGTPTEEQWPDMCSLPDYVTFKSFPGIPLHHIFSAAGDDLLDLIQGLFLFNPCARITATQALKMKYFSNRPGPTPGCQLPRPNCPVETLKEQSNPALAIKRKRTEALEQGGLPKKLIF
CDK7, sequence (P51946 whole entry partner, species assumed): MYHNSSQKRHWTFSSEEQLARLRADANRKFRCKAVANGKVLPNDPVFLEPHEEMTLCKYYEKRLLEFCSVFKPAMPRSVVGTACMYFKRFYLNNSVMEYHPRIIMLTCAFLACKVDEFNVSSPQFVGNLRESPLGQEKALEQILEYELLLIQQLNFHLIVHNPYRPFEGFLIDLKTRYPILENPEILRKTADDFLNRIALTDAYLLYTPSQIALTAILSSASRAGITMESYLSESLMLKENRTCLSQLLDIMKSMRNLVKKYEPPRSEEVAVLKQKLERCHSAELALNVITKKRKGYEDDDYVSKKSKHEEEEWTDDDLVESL
CDK7, sequence (P51948 whole entry partner, species assumed): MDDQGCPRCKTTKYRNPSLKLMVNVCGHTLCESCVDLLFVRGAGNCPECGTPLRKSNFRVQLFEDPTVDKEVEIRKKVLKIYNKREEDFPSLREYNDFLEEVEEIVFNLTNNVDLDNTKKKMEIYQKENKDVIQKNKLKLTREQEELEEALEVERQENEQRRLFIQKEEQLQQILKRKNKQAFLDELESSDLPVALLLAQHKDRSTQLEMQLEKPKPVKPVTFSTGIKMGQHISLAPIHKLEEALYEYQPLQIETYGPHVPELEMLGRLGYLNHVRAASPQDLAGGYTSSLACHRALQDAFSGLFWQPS
CDK9, sequence (P50750 whole entry, species assumed): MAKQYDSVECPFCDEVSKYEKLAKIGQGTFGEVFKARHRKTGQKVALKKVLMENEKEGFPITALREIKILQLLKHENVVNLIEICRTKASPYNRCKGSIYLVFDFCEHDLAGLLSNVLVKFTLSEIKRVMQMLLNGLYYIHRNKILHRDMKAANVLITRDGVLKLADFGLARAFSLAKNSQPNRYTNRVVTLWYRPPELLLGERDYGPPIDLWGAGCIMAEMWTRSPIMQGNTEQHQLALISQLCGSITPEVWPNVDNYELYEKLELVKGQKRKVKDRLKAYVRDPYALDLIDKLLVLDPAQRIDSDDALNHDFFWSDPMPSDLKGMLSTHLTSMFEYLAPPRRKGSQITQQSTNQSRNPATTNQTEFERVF
CDK9, sequence (O60563 whole entry partner, species assumed): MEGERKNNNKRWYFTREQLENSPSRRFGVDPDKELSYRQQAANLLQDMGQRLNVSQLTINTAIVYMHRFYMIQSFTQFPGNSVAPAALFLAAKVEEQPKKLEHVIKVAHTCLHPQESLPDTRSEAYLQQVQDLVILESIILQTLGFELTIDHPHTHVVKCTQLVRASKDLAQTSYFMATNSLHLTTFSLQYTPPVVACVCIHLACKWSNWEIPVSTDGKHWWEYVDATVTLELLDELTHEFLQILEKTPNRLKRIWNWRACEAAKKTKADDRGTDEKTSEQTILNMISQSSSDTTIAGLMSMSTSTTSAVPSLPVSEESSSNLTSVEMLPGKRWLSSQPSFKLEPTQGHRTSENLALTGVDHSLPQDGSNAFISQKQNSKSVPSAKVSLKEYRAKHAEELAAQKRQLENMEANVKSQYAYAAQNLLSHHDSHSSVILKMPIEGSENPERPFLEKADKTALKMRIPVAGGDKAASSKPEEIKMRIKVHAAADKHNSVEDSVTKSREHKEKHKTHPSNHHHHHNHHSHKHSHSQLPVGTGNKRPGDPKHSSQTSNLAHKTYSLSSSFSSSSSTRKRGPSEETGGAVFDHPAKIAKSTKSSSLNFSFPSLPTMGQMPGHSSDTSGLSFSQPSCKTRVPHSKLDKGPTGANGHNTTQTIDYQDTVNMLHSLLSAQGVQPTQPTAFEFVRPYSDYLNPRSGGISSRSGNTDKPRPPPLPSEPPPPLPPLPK
SRC, sequence (P12931 whole entry, species assumed): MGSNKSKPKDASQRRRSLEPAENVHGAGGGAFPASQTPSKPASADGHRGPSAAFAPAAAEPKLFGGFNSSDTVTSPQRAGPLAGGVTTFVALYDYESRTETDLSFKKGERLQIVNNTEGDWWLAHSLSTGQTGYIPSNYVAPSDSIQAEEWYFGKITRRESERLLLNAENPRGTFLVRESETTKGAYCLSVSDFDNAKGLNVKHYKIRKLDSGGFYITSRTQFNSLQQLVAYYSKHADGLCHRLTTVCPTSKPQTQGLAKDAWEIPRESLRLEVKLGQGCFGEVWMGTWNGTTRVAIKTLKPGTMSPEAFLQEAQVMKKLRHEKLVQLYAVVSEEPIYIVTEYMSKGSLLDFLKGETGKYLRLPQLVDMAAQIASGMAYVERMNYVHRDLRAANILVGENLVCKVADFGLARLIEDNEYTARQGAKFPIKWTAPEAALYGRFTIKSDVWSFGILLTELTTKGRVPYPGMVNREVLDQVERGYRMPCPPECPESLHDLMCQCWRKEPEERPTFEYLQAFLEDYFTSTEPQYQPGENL

For the compound `CCCn1cc(-c2ccnc(Nc3ccc(O)cc3)n2)c2cccnc21` [Compound 15, 4-(4-(1-Propyl-1H-pyrrolo[2,3-b]pyridin-3-yl)pyrimidin-2-ylamino)phenol], the values for the IC50 with ACHN-luc, with HeLa cells and in the experiment with Molt-4-luc were 7810 nM, 10400 nM and 2460 nM, respectively.

As to `CCCn1cc(-c2ccnc(Nc3cccc(O)c3)n2)c2cccnc21` [Compound 16, 3-(4-(1-Propyl-1H-pyrrolo[2,3-b]pyridin-3-yl)pyrimidin-2-ylamino)phenol], the IC50 with ACHN-luc was determined as 7380 nM; with HeLa cells, 14200 nM; in the experiment on Molt-4-luc it was 3820 nM.

As for `CCn1cc(-c2ccnc(Nc3cccc(S(N)(=O)=O)c3)n2)c2cccnc21` [Compound 18, 3-(4-(1-Ethyl-1H-pyrrolo[2,3-b]pyridin-3-yl)pyrimidin-2-ylamino)benzenesulfonamide], the IC50 in the experiment with ACHN-luc was 2980 nM; in the experiment with MRC-5 (setting [1]) it was 13300 nM; with HeLa cells, 1700 nM; on CDK7, 146 nM; in the experiment on Molt-4-luc, 1050 nM; on SRC, 1050 nM. Besides, the IC50 on CDK9 was 13 nM. In addition, the “% Tumor Growth Inhibition at Day 21” value is recorded as 41.3% with lung carcinoma (H460) (20 mg/kg) and 56.5% in the experiment on lung carcinoma (H460) (150 mg/kg).

Consider `CCn1cc(-c2ccnc(Nc3cccc(C#N)c3)n2)c2cccnc21` [Compound 20, 3-(4-(1-Ethyl-1H-pyrrolo[2,3-b]pyridin-3-yl)pyrimidin-2-ylamino)benzonitrile], for which the IC50 in the experiment with ACHN-luc was more than 10000 nM; in the experiment on MRC-5 (setting [1]), 15100 nM; in the experiment on HeLa cells, 5550 nM; with Molt-4-luc it was 3430 nM.

Consider `CCCn1cc(-c2ccnc(Nc3cccc(S(N)(=O)=O)c3)n2)c2cccnc21` [Compound 22, 3-(4-(1-Propyl-1H-pyrrolo[2,3-b]pyridin-3-yl)pyrimidin-2-ylamino)benzenesulfonamide], for which the IC50 in the experiment with ACHN-luc amounted to 3740 nM; with MRC-5 (setting [1]), 5170 nM; with HeLa cells, 1670 nM; with Molt-4-luc it was 2450 nM.

Consider `CCCn1cc(-c2ccnc(Nc3ccc(C)c(S(=O)(=O)N4CCOCC4)c3)n2)c2cccnc21` [Compound 24, N-(4-Methyl-3-(morpholinosulfonyl)phenyl)-4-(1-propyl-1H-pyrrolo[2,3-b]pyridin-3-yl)pyrimidin-2-amine], for which the IC50 with ACHN-luc was 5580 nM; with MRC-5 (setting [1]), 3880 nM; in the experiment with HeLa cells it was 1600 nM; in the experiment with Molt-4-luc, 4510 nM.

As for `CCCn1cc(-c2ccnc(Nc3cccc(S(N)(=O)=O)c3)n2)c2nc(Cl)cc(C)c21` [Compound 42, 3-(4-(5-Chloro-7-methyl-1-propyl-1H-pyrrolo[3,2-b]pyridin-3-yl)pyrimidin-2-ylamino)benzenesulfonamide], the IC50 in the experiment with ACHN-luc is more than 10000 nM; in the experiment with MRC-5 (setting [1]), 14600 nM; in the experiment with HeLa cells it was 9930 nM; with Molt-4-luc, 4790 nM.

Take `CCCn1cc(-c2ccnc(Nc3cccc(S(N)(=O)=O)c3)n2)c2ccnc(Cl)c21` [Compound 96, 3-(4-(7-chloro-1-propyl-1H-pyrrolo[2,3-c]pyridin-3-yl)pyrimidin-2-ylamino)benzenesulfonamide]: the IC50 in the experiment on ACHN-luc was determined as 340 nM; in the experiment with MRC-5 (setting [1]), 890 nM; in the experiment on HeLa cells it was 150 nM; in the experiment with Molt-4-luc, 220 nM.

With `CCCn1cc(-c2ccnc(Nc3ccc(C)c(S(=O)(=O)N4CCOCC4)c3)n2)c2ccncc21` [Compound 102, N-(4-Methyl-3-(morpholinosulfonyl)phenyl)-4-(1-propyl-1H-pyrrolo[2,3-c]pyridin-3-yl)pyrimidin-2-amine], the IC50 in the experiment with ACHN-luc was determined as 620 nM; in the experiment on HeLa cells it was 490 nM; with Molt-4-luc, 230 nM.

As for `CCCn1cc(-c2ccnc(Nc3cccc(S(N)(=O)=O)c3)n2)c2ccncc21` [Compound 111, 3-(4-(1-Propyl-1H-pyrrolo[2,3-c]pyridin-3-yl)pyrimidin-2-ylamino)benzenesulfonamide], the IC50 in the experiment with ACHN-luc came out at 60 nM; in the experiment with MRC-5 (setting [1]) it was 60 nM; in the experiment with HeLa cells, 10 nM; with Molt-4-luc it was 10 nM.

`CCCn1cc(-c2ccnc(Nc3ccc(S(N)(=O)=O)cc3)n2)c2ccncc21` [Compound 112, 4-(4-(1-Propyl-1H-pyrrolo[2,3-c]pyridin-3-yl)pyrimidin-2-ylamino)benzenesulfonamide]: the IC50 in the experiment with ACHN-luc is 37 nM; with MRC-5 (setting [1]), more than 10000 nM; with HeLa cells it was 0.4 nM; in the experiment with Molt-4-luc, 20 nM.

For the compound `CCCn1cc(-c2ccnc(Nc3cccc(S(N)(=O)=O)c3)n2)c2ccncc21` [SG51], the IC50 on CDK7 came to 43 nM; at TSSK1 it was 1.6 nM; at SRC, 200 nM; on CDK9 it was 0.6 nM.

As to `CCCn1cc(-c2ccnc(Nc3ccc(C)c(S(=O)(=O)N4CCOCC4)c3)n2)c2ccncc21` [SG52], the IC50 in the experiment with MRC-5 (setting [2]) was 1630 nM; on CDK7, 1950 nM; on TSSK1, more than 10000 nM; at SRC it was 3930 nM; on CDK9, 0.4 nM.

Consider `CCCn1cc(-c2ccnc(Nc3cccc(S(N)(=O)=O)c3)n2)c2nc(Cl)cc(C)c21` [SG53], for which the IC50 was more than 10000 nM at CDK7, more than 10000 nM at TSSK1, more than 10000 nM at SRC and 41 nM on CDK9.

On to `CCCn1cc(-c2ccnc(Nc3ccc(S(N)(=O)=O)cc3)n2)c2nc(Cl)cc(C)c21` [SG54], for which the IC50 in the experiment with MRC-5 (setting [2]) is 3970 nM; on CDK7 it was more than 10000 nM; at TSSK1, more than 10000 nM; at SRC it was more than 10000 nM; at CDK9, 57 nM.
